According to BindingDB's records for doi:10.1016/j.bmc.2009.10.004 (Kinki University, 2010):

Target: Beta-secretase 1 (Homo sapiens, UniProt P56817)
Assay: Competitive inhibition of human recombinant BACE1 by Lineweaver-Burke plot analysis

Sequence of Beta-secretase 1 (P56817 whole entry): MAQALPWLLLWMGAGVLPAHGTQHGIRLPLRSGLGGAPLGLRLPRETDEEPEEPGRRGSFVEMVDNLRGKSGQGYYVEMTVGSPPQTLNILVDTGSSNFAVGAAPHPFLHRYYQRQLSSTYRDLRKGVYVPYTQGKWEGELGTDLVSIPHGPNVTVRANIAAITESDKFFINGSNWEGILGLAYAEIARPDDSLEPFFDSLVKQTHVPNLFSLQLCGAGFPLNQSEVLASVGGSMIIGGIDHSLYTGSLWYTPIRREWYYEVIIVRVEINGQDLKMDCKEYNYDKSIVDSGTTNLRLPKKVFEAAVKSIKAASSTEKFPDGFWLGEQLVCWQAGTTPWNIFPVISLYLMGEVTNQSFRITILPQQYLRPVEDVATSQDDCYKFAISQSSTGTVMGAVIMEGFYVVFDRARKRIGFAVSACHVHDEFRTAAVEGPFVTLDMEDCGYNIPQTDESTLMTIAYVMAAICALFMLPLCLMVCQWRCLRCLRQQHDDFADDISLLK

Ki: 11.3 µM
Compound: COC(=O)CCc1c(O)cc2occc2c1OCC=C(C)C [6,7-Furano-5-prenyloxy hydrocoumaric acid methyl ester]
